According to patent US9556192B2, “Functionalized 9-bromo-camptothecin derivatives” (NERVIANO MEDICAL SCIENCES S.R.L., priority 2012, dated 2017):
Counter-ions that a name gives are not always drawn. Like-named read-outs stand apart in the source and are kept apart here.

Columns and labels:
[1] = Elimination of self-immolative group at pH 7.4 (HPLC/MS); format: physicochemical; conditions: pH 7.4 (Tris-HCl buffer), room temperature, 1 h
Experimental: (§1) The conjugate A1 was incubated with 0.2 units of cathepsin B in sodium acetate buffer pH 5.5 and 1 mM Cys for 2 h at 40° C. Then pH was adjusted to 7.4 by addition of Tris-HCl buffer and maintained at room temperature for 1 h.

[2] = test system: A2780 human ovarian cancer cells; assay: In vitro cell proliferation assay (CellTiter-Glo); format: cell-based; conditions: 72 h
Experimental: In Vitro Cell Proliferation Assay
A2780 human ovarian and MCF7 human breast cancer cells (1250 cells/well) were seeded in white 384 well-plates in complete medium (RPMI1640 or EMEM plus 10% Fetal bovine serum) and treated with compounds dissolved in 0.1% DMSO, 24 h after seeding. The cells were incubated at 37° C. and 5% CO2 and after 72 h the plates were processed using CellTiter-Glo assay (Promega) following the manufacturers instructions.
CellTiter-Glo is a homogenous method based on the quantification of the ATP present, an indicator of metabolically active cells. ATP is quantified using a system based on luciferase and D-luciferin resulting into light generation. The luminescent signal is proportional to the number of cells present in culture.
Briefly, 25 μL/well of reagent solution are added to each well and after 5 min shaking microplates are read by a luminometer. The luminescent signal is proportional to the number of cells present in culture.

[3] = target: cathepsin B (Homo sapiens, UniProt P07858); assay: Release of a drug moiety from conjugate in presence of cathepsin B; format: biochemical; conditions: 0.2 units cathepsin B, sodium acetate buffer pH 5.5, 1 mM Cys, 2 h at 40° C.
Experimental: As an example, that is not intended to limit the scope of the invention, the release of a compound of formula (I) from the conjugate was performed in presence of cathepsin as reported below.
as §1

[4] = read-out: IC50 value in A2780 human ovarian cancer cells

SMILES	Release of 9-bromo-camptothecin by elimination of the self-immolative group W [1]	IC50 ([2]; read-out: A2780 (IC50 nM)) [nM]	IC50 [2, 4] [nM]	Cleavage of the Z peptidic linker of the conjugate with release of Comp. 11 [3]
CC[C@@]1(OC(=O)CC2(CN)CCCCC2)C(=O)OCc2c1cc1n(c2=O)Cc2cc3c(Br)cccc3nc2-1.Cl [Comp. 11]	elimination of the self-immolative group W	–	–	–
CC[C@@]1(OC(=O)CNC(=O)[C@H](CC(C)C)NC(=O)[C@@H](N)Cc2ccccc2)C(=O)OCc2c1cc1n(c2=O)Cc2cc3c(Br)cccc3nc2-1 [Comp. 2, (4S)-10-bromo-4-ethyl-3,14-dioxo-3,4,12,14-tetrahydro-1H-pyrano[3′,4′:6,7]indolizino[1,2-b]quinolin-4-yl L -phenylalanyl-L-leucylglycinate]	–	1.56	< 10	–
CC[C@@]1(OC(=O)CN)C(=O)OCc2c1cc1n(c2=O)Cc2cc3c(Br)cccc3nc2-1 [Comp. 1, (4S)-10-bromo-4-ethyl-3,14-dioxo-3,4,12,14-tetrahydro-1H-pyrano[3′,4′6,7]indolizino[1,2-b]quinolin-4-yl glycinate hydrochloride]	–	0.97	< 10	–
CC[C@@]1(O)C(=O)OCc2c1cc1n(c2=O)Cc2cc3c(Br)cccc3nc2-1 [9-bromo-camptothecin]	–	1.62	–	–
CC[C@@]1(OC(=O)CC2(CNC(=O)[C@@H](CCCNC(N)=O)NC(=O)[C@@H](NC(=O)CCCCCN3C(=O)CC(N[C@H](C=O)CS)C3=O)C(C)C)CCCCC2)C(=O)OCc2c1cc1n(c2=O)Cc2cc3c(Br)cccc3nc2-1 (stereo partly shown) [conjugate A1]	–	–	–	Partial disappearance
